This assay deals with Rat Chronic Constriction Injury Model (neuropathic pain). The settings on record: clonidine subcutaneously 0.02 mg/kg/day; FIG. 4.

Source text: The inventors evaluated the efficacy of a five Month Clonidine/Polymer Drug Depot in the Rat Chronic Constriction Injury Model. The animal model was the Bennett Model (Wistar rat). The purpose: To determine whether a five month polymer clonidine-eluting depot can improve pain associated behavioral responses in a rat model of neuropathic pain.
Experimental Design: Four loose chromic gut ligatures, 1 mm apart, were tied around the common sciatic nerve at mid-thigh. Each animal received treatment of test or control article-according to the dosing described in Table 5.
The inventors have conducted the present study for a period of 64 days and have employed the following two tests: (1) the Hargreaves test; and (2) the von Frey test. The Hargreaves Tests of Thermal Hyperalgesia were conducted on days 7, 14, 21, 28, 35, 42, 49, 56 and 63. The von Frey monofilament test of mechanical allodynia (performed the day following Thermal testing) were conducted on days-8, 15, 22, 29, 36, 43, 50, 57 and 64.

In the case of `Clc1cccc(Cl)c1N=C1NCCN1` [clonidine, 2,6-dichloro-N2-imidazolidinyldenebenzenamine], the “pain behavioral response (percentage of baseline) for mechanical allodynia compared to unloaded polymer depots” value was “reduced the behavioral response”.

The values are drawn from US8956641B2, “Alpha adrenergic receptor agonists for treatment of inflammatory diseases” (Warsaw Orthopedic, Inc., priority 2008, dated 2015).
